Some test systems named below: 786-0; DU-145; EKVX; HCC 2998; HCT-15; MDA-MB-435; MDA-N; Malme-3M; NCI-H23; OVCAR-3; RPMI-8226; RXF 393; SF-295; SF-539; SK-MEL-2; SNB-75; SR; SW-620; UACC-62; UO-31.
Experiment in all cases: NCI anticancer screen, dose series, 48 h

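Exposure lasted 48 hours, with cells grown in 96-well plates and compounds tested at five concentrations. GI50 is the concentration that inhibits growth by half.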 The source made the active and inactive calls. Rule as the data show it: active = GI50 up to about 1.1 µM and inactive = higher. Where only a bound is given, the exact number is not on record here.

On to `FC(F)(F)c1n[nH]c(SCc2ccc(Cl)cc2)n1`, for which the GI50 is > 100 µM (inactive) with 786-0; > 100 µM (inactive) in the assay on DU-145; > 100 µM (inactive) with EKVX; > 100 µM (inactive) with HCC 2998; over 100 µM in the assay on HCT-15; > 100 µM (inactive) in the assay with MDA-MB-435. Also, the GI50 with MDA-N, with Malme-3M, in the assay with NCI-H23, in the assay on OVCAR-3, in the assay with RPMI-8226 and with RXF 393 was > 100 µM (inactive) each time. The GI50 in the assay with SF-295, with SF-539, with SK-MEL-2, in the assay on SNB-75, with SR and in the assay with SW-620 was > 100 µM (inactive) in each case. Also, the values for the GI50 with UACC-62 and in the assay on UO-31 were > 100 µM (inactive) and 59.4 µM (inactive), respectively.
Regarding `O=C1C(O)=C(CC=C(Cl)Cl)C(=O)c2ccccc21`, the GI50 is 6.17 µM (inactive) in the assay with 786-0; 23.8 µM (inactive) in the assay on DU-145; 42.3 µM (inactive) in the assay with EKVX; 28 µM (inactive) in the assay on HCC 2998; 0.757 µM with HCT-15; 11 µM (inactive) in the assay on MDA-MB-435. Further, the GI50 in the assay on MDA-N was 16.4 µM (inactive); in the assay with Malme-3M, 10.8 µM (inactive); with NCI-H23, 27.9 µM (inactive); in the assay on OVCAR-3, 13.5 µM (inactive); in the assay with RPMI-8226, 2.28 µM (inactive); with RXF 393 it was 28.7 µM (inactive). Moreover, the GI50 in the assay with SF-539 was 10 µM (inactive); in the assay with SK-MEL-2, 17.7 µM (inactive); with SNB-75, 50.6 µM (inactive); in the assay with SR it was 1.08 µM (active); with SW-620, 8.93 µM (inactive); in the assay on UACC-62, 4.91 µM (inactive). The GI50 in the assay with UO-31 is 20.7 µM (inactive).
On to `O=c1[nH]c2ccc(CC(=S)N3CCN(c4ccccc4)CC3)cc2o1`, for which the GI50 with 786-0 is > 90.2 µM (inactive); in the assay with DU-145 it was > 100 µM (inactive); in the assay with EKVX, 37.9 µM (inactive); in the assay with HCC 2998 it was > 100 µM (inactive); in the assay on HCT-15, 66.2 µM; with MDA-MB-435 it was 54.5 µM (inactive). Besides, the GI50 in the assay with MDA-N is > 49.9 µM (inactive); in the assay on Malme-3M, 4.78 µM (inactive); with NCI-H23, > 100 µM (inactive); with OVCAR-3, > 100 µM (inactive); in the assay with RPMI-8226, > 66.5 µM (inactive); in the assay on RXF 393 it was > 100 µM (inactive). For the same molecule, the GI50 in the assay on SF-295 is > 89.3 µM (inactive); in the assay with SF-539 it was > 67.8 µM (inactive); with SK-MEL-2, > 100 µM (inactive); in the assay on SNB-75 it was > 34 µM (inactive); in the assay on SR it was > 58.3 µM (inactive); with SW-620, > 100 µM (inactive). Besides, the GI50 with UACC-62 was > 66.4 µM (inactive); in the assay on UO-31, > 100 µM (inactive).
On to `COc1cc2c(c(OC)c1)C(=O)O[C@H](C)CCCC/C=C/C2`, for which the GI50 was 10.9 µM (inactive) in the assay with 786-0; 11.7 µM (inactive) in the assay with DU-145; 11.7 µM (inactive) in the assay on EKVX; 15.8 µM (inactive) in the assay on HCC 2998; 10.2 µM with HCT-15; 4.73 µM (inactive) with MDA-MB-435. Besides, the GI50 with MDA-N is 8.63 µM (inactive); with Malme-3M it was 13.1 µM (inactive); in the assay on NCI-H23 it was 11.2 µM (inactive); in the assay with OVCAR-3 it was 9.38 µM (inactive); in the assay on RPMI-8226, 9.12 µM (inactive); in the assay with RXF 393, 9.95 µM (inactive). Besides, the GI50 with SF-295 is 13.6 µM (inactive); with SF-539, 10.9 µM (inactive); in the assay with SK-MEL-2 it was 12.1 µM (inactive); with SNB-75, 14.1 µM (inactive); with SR it was > 53.5 µM (inactive); in the assay on SW-620, 7.94 µM (inactive). Also, the GI50 in the assay on UACC-62 was 8.93 µM (inactive); in the assay with UO-31, 13.5 µM (inactive).
Take `CCOC(=O)c1ccc(Nc2nc3cc(C(F)(F)F)ccc3nc2-c2ccccc2)cc1`: the GI50 in the assay with 786-0 is 18.7 µM (inactive); in the assay on DU-145, > 100 µM (inactive); in the assay with EKVX, 49.8 µM (inactive); with HCC 2998, 22.8 µM (inactive); in the assay on HCT-15, over 100 µM; in the assay on MDA-MB-435, 69.3 µM (inactive). Further, the GI50 is > 100 µM (inactive) in the assay with MDA-N; > 100 µM (inactive) in the assay on Malme-3M; 40.3 µM (inactive) in the assay with NCI-H23; 53.6 µM (inactive) with OVCAR-3; > 100 µM (inactive) with RPMI-8226; 21.4 µM (inactive) in the assay on RXF 393. In addition, the GI50 with SF-295 was 26.7 µM (inactive); in the assay on SF-539 it was 65.5 µM (inactive); with SNB-75, 13.5 µM (inactive); in the assay on SR, > 100 µM (inactive); with SW-620, 63.2 µM (inactive); with UACC-62, 11.1 µM (inactive). Also, the GI50 in the assay on UO-31 was > 100 µM (inactive).
As to `CCCCc1ccc(Nc2nc3c(ncn3C3CC(O)C(CN=[N+]=[N-])O3)c(=O)[nH]2)cc1` (configuration not stated), the GI50 in the assay on 786-0 was > 100 µM (inactive); with DU-145 it was > 100 µM (inactive); in the assay on EKVX it was > 100 µM (inactive); in the assay on HCC 2998 it was > 100 µM (inactive); in the assay on HCT-15 it was over 100 µM; with MDA-MB-435, > 100 µM (inactive). For the same molecule, the GI50 in the assay on MDA-N, in the assay on Malme-3M, in the assay with NCI-H23, in the assay on OVCAR-3, in the assay with RPMI-8226 and with RXF 393 was > 100 µM (inactive) each time. Also, the GI50 in the assay with SF-295, with SK-MEL-2, in the assay on SNB-75, in the assay with SR, with SW-620 and with UACC-62 was > 100 µM (inactive) throughout. In the assay with UO-31, the GI50 was > 100 µM (inactive).
Take `C=C(C)C(=O)O[C@@H]1C[C@@]2(C)O[C@@H]2C[C@H](O)/C(C)=C/[C@H]2OC(=O)C(=C)[C@@H]21`: the GI50 with 786-0 is 38.9 µM (inactive); in the assay on DU-145, > 100 µM (inactive); in the assay with EKVX, 62.2 µM (inactive); with HCC 2998, > 100 µM (inactive); in the assay with HCT-15, 30.9 µM; in the assay on MDA-MB-435, 59.6 µM (inactive). The GI50 in the assay with MDA-N was 50 µM (inactive); in the assay with Malme-3M, 24.5 µM (inactive); in the assay on NCI-H23 it was > 100 µM (inactive); in the assay with OVCAR-3, 47.9 µM (inactive); in the assay with RPMI-8226, 40.1 µM (inactive); with RXF 393 it was 33.3 µM (inactive). Further, the GI50 with SF-295 was > 100 µM (inactive); in the assay with SF-539, > 100 µM (inactive); in the assay with SK-MEL-2 it was 49.1 µM (inactive); with SNB-75, > 100 µM (inactive); in the assay with SR, 28.2 µM (inactive); with SW-620, 18.7 µM (inactive). Also, the GI50 with UACC-62 was 74.5 µM (inactive).
For `CS(=O)(=O)N1CC(CI)c2ccc(O)cc21` (configuration not stated), the GI50 was 3.24 µM (inactive) in the assay on 786-0; 3.05 µM (inactive) with DU-145; 3.74 µM (inactive) in the assay on EKVX; 2.08 µM (inactive) with HCC 2998; 3.13 µM in the assay with HCT-15; 1.89 µM (inactive) in the assay with MDA-MB-435. The GI50 was 2.54 µM (inactive) in the assay with MDA-N; 1.93 µM (inactive) in the assay on Malme-3M; 1.32 µM (inactive) in the assay with NCI-H23; 2.89 µM (inactive) in the assay with OVCAR-3; 1.61 µM (inactive) in the assay on RPMI-8226; 1.07 µM (active) in the assay on RXF 393. Besides, the GI50 is 3.51 µM (inactive) in the assay on SF-295; 2.99 µM (inactive) with SF-539; 2.1 µM (inactive) with SK-MEL-2; 1.79 µM (inactive) in the assay on SNB-75; 1.4 µM (inactive) in the assay on SR; 2.18 µM (inactive) in the assay on SW-620. The GI50 in the assay with UO-31 is 3.35 µM (inactive).
Take `Cc1ccc(Nc2nnc3n2S(=O)(=O)c2cc(C)c(Cl)cc2S3)cc1`: the GI50 in the assay with 786-0 is 10.3 µM (inactive); with DU-145, 8.09 µM (inactive); in the assay on EKVX, 25.4 µM (inactive); with HCC 2998, 18.2 µM (inactive); in the assay on HCT-15 it was 5.05 µM; with MDA-MB-435, 3.64 µM (inactive). For the same molecule, the GI50 in the assay with MDA-N was 1.7 µM (inactive); with NCI-H23 it was 8.95 µM (inactive); in the assay on OVCAR-3 it was 2 µM (inactive); in the assay on RPMI-8226, 18.4 µM (inactive); in the assay on RXF 393, 10.5 µM (inactive); in the assay with SF-295, 3.22 µM (inactive). The GI50 in the assay on SF-539 is 3.77 µM (inactive); with SK-MEL-2 it was 3.91 µM (inactive); in the assay with SNB-75, 6.93 µM (inactive); with SR, 2.4 µM (inactive); with SW-620, 14.5 µM (inactive); in the assay with UO-31 it was 17.3 µM (inactive).
With `COC(=O)/C=C1/OC(c2ccccc2)=C(C)C1=O`, the GI50 in the assay on 786-0 is 10.2 µM (inactive); with DU-145, 19.3 µM (inactive); in the assay with EKVX it was 17.9 µM (inactive); in the assay with HCC 2998, 16.6 µM (inactive); with HCT-15 it was 4.79 µM; in the assay with MDA-MB-435, 13.9 µM (inactive). Further, the GI50 was 1.36 µM (inactive) in the assay on MDA-N; 13.3 µM (inactive) in the assay with Malme-3M; 20.2 µM (inactive) in the assay with NCI-H23; 20 µM (inactive) in the assay with OVCAR-3; 2.19 µM (inactive) in the assay on RPMI-8226; 10.6 µM (inactive) with RXF 393. For the same molecule, the GI50 in the assay on SF-295 was 13.3 µM (inactive); in the assay with SF-539, 17.4 µM (inactive); in the assay with SNB-75 it was 23.6 µM (inactive); with SR, 2.61 µM (inactive); in the assay with SW-620, 2.4 µM (inactive); in the assay with UACC-62, 4.12 µM (inactive). Moreover, the GI50 in the assay on UO-31 was 13.8 µM (inactive).
